# In patent publication US20260262643A1, “HERBICIDAL BENZOXAZINES” (FMC CORPORATION, priority 2022, published 2026):
# Where two headings read alike, the source gives them in different places.
# How the values were obtained:
# blackgrass = experiment: Test A preemergence; type: in vivo, Alopecurus myosuroides; conditions: Alopecurus myosuroides, pre-emergence, 240 h, read-out: Plant response rating, Blackgrass; for pest or weed control at 125 g/ha: 125 g ai/ha; for pest or weed control at 500 g/ha: 500 g ai/ha
# Summary of the method: (§1)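 Weeds and crops in loam–sand blend were sprayed preemergence onto soil or postemergence at 2–10 cm (one- to two-leaf stage). Test chemicals were in a non-phytotoxic solvent with surfactant. After 10 days in the greenhouse, injury was rated visually against untreated controls on a 0 (no effect) to 100 (complete control) scale.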
# kochia [1] = experiment: Test A preemergence; type: in vivo, Bassia scoparia; conditions: Bassia scoparia, pre-emergence, 240 h, read-out: Plant response rating, Kochia; for pest or weed control at 125 g/ha: 125 g ai/ha; for pest or weed control at 500 g/ha: 500 g ai/ha
# Summary of the method: as §1
# oat, wild [2] = experiment: Test A preemergence; type: in vivo, Avena fatua; conditions: Avena fatua, pre-emergence, 240 h, read-out: Plant response rating, Oat, Wild; for pest or weed control at 125 g/ha: 125 g ai/ha; for pest or weed control at 500 g/ha: 500 g ai/ha
# Summary of the method: as §1
# pigweed, palmer = experiment: Test A preemergence; type: in vivo, Amaranthus palmeri; conditions: Amaranthus palmeri, pre-emergence, 240 h, read-out: Plant response rating, Pigweed, Palmer; for pest or weed control at 125 g/ha: 125 g ai/ha; for pest or weed control at 500 g/ha: 500 g ai/ha
# Summary of the method: as §1
# soybean [3] = experiment: Test A preemergence; type: in vivo, Glycine max; conditions: Glycine max, pre-emergence, 240 h, read-out: Plant response rating, Soybean; for plant injury at 125 g/ha: 125 g ai/ha; for plant injury at 500 g/ha: 500 g ai/ha
# Summary of the method: as §1
# kochia [4] = experiment: Test A postemergence; type: in vivo, Bassia scoparia; conditions: Bassia scoparia, post-emergence, 240 h; for pest or weed control at 125 g/ha: 125 g ai/ha; for pest or weed control at 500 g/ha: 500 g ai/ha
# Summary of the method: as §1
# oat, wild [5] = experiment: Test A postemergence; type: in vivo, Avena fatua; conditions: Avena fatua, post-emergence, 240 h; for pest or weed control at 125 g/ha: 125 g ai/ha; for pest or weed control at 500 g/ha: 500 g ai/ha
# Summary of the method: as §1
# ragweed = experiment: Test A postemergence; type: in vivo, Ambrosia artemisiifolia; conditions: Ambrosia artemisiifolia, post-emergence, 240 h; for pest or weed control at 125 g/ha: 125 g ai/ha; for pest or weed control at 500 g/ha: 500 g ai/ha
# Summary of the method: as §1
# ryegrass, Italian = experiment: Test A postemergence; type: in vivo, Lolium multiflorum; conditions: Lolium multiflorum, post-emergence, 240 h; for pest or weed control at 125 g/ha: 125 g ai/ha; for pest or weed control at 500 g/ha: 500 g ai/ha
# Summary of the method: as §1
# soybean [6] = experiment: Test A postemergence; type: in vivo, Glycine max; conditions: Glycine max, post-emergence, 240 h; for plant injury at 125 g/ha: 125 g ai/ha; for plant injury at 500 g/ha: 500 g ai/ha
# Summary of the method: as §1
# wheat = experiment: Test A postemergence; type: in vivo, Triticum aestivum; conditions: Triticum aestivum, post-emergence, 240 h; for plant injury at 125 g/ha: 125 g ai/ha; for plant injury at 500 g/ha: 500 g ai/ha
# Summary of the method: as §1
# galium = experiment: Test A postemergence; type: in vivo, Galium aparine; conditions: Galium, post-emergence, 240 h; for pest or weed control at 125 g/ha: 125 g ai/ha; for pest or weed control at 500 g/ha: 500 g ai/ha
# Summary of the method: as §1
# ducksalad = experiment: Test B flooded paddy test; type: in vivo, Heteranthera limosa; conditions: Heteranthera limosa, 312 h, 250 g ai/ha, Flood, 13 days, 0 to 100 scale (0 no effect, 100 complete control); read-out: Plant response rating, Ducksalad
# Summary of the method: (§2)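 Species grown to 2-leaf stage; pots flooded 3 cm above soil and compound applied directly to paddy water, depth maintained throughout. After 13 days in greenhouse, plants visually rated against controls on 0–100 scale (0 no effect, 100 complete control); dash means no result.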
# rice = experiment: Test B flooded paddy test; type: in vivo, Oryza sativa; conditions: Oryza sativa, 312 h; 250 g ai/ha, Flood, 13 days, 0 to 100 scale (0 no effect, 100 complete control); read-out: Plant response rating, Rice
# Summary of the method: as §2
# sedge, umbrella = experiment: Test B flooded paddy test; type: in vivo, Cyperus difformis; conditions: Cyperus difformis, 312 h; 250 g ai/ha, Flood, 13 days, 0 to 100 scale (0 no effect, 100 complete control); read-out: Plant response rating, Sedge, Umbrella
# Summary of the method: as §2
# [7] = visual injury after 10 days, 0 to 100 scale, 0 is no effect, 100 is complete control
# [8] = 0 to 100 scale (0 no effect, 100 complete control), 10 days
# [9] = postemergence, 10 days, visual injury, 0 to 100 scale (0 no effect, 100 complete control), read-out: Plant response rating, Kochia
# [10] = postemergence, 10 days, visual injury, 0 to 100 scale (0 no effect, 100 complete control), read-out: Plant response rating, Oat, Wild
# [11] = postemergence, 10 days, visual injury, 0 to 100 scale (0 no effect, 100 complete control), read-out: Plant response rating, Ragweed
# [12] = postemergence, 10 days, visual injury, 0 to 100 scale (0 no effect, 100 complete control), read-out: Plant response rating, Ryegrass, Italian
# [13] = postemergence, 10 days, visual injury, 0 to 100 scale (0 no effect, 100 complete control), read-out: Plant response rating, Soybean
# [14] = postemergence, 10 days, visual injury, 0 to 100 scale (0 no effect, 100 complete control), read-out: Plant response rating, Wheat
# [15] = postemergence, 10 days, visual injury, 0 to 100 scale (0 no effect, 100 complete control), read-out: Plant response rating, Galium
compound,measurement,setting,value
"Cc1cccc2c1O[C@@H](C)CN2C(=O)c1cccc(-n2cnc(Br)n2)c1 [Compound 61, [3-(3-Bromo-1H-1,2,4-triazol-1-yl)phenyl][(2S)-2,3-dihydro-2,8-dimethyl-4H-1,4-benzoxazin-4-yl]methanone]",pest or weed control at 125 g/ha,blackgrass; [7],50%
same,pest or weed control at 500 g/ha,blackgrass; [8],70%
same,pest or weed control at 125 g/ha,kochia [1]; [7],20%
same,pest or weed control at 500 g/ha,kochia [1]; [8],60%
same,pest or weed control at 125 g/ha,"oat, wild [2]; [7]",30%
same,pest or weed control at 500 g/ha,"oat, wild [2]; [8]",30%
same,pest or weed control at 125 g/ha,"pigweed, palmer; [7]",60%
same,pest or weed control at 500 g/ha,"pigweed, palmer; [8]",90%
same,plant injury at 125 g/ha,soybean [3]; [7],0%
same,plant injury at 500 g/ha,soybean [3]; [8],30%
same,pest or weed control at 125 g/ha,kochia [4]; [9],20%
same,pest or weed control at 500 g/ha,"kochia [4]; Postemergence, 0 to 100 scale, read-out: Plant response rating, Kochia",70%
same,pest or weed control at 125 g/ha,"oat, wild [5]; [10]",10%
same,pest or weed control at 500 g/ha,"oat, wild [5]; Postemergence, 0 to 100 scale, read-out: Plant response rating, Oat, Wild",20%
same,pest or weed control at 125 g/ha,ragweed; [11],30%
same,pest or weed control at 500 g/ha,"ragweed; Postemergence, 0 to 100 scale, read-out: Plant response rating, Ragweed",40%
same,pest or weed control at 125 g/ha,"ryegrass, Italian; [12]",40%
same,pest or weed control at 500 g/ha,"ryegrass, Italian; Postemergence, 0 to 100 scale, read-out: Plant response rating, Ryegrass, Italian",40%
same,plant injury at 125 g/ha,soybean [6]; [13],100%
same,plant injury at 500 g/ha,"soybean [6]; Postemergence, 0 to 100 scale, read-out: Plant response rating, Soybean",100%
same,plant injury at 125 g/ha,wheat; [14],10%
same,plant injury at 500 g/ha,"wheat; Postemergence, 0 to 100 scale, read-out: Plant response rating, Wheat",20%
same,pest or weed control at 125 g/ha,galium; [15],70%
same,pest or weed control at 500 g/ha,"galium; Postemergence, 0 to 100 scale, read-out: Plant response rating, Galium",100%
same,pest or weed control at 250 g/ha,ducksalad,15%
same,plant injury at 250 g/ha,rice,0%
same,pest or weed control at 250 g/ha,"sedge, umbrella",45%
CC(C)c1ncn(-c2cc3c(c(C(=O)N4C[C@H](C)Oc5c(Cl)cccc54)c2)OCC3)n1 [Compound 147],pest or weed control at 125 g/ha,blackgrass; 0 to 100 scale,20%
same,pest or weed control at 500 g/ha,blackgrass; [7],90%
same,pest or weed control at 125 g/ha,kochia [1]; 0 to 100 scale,70%
same,pest or weed control at 500 g/ha,kochia [1]; [7],90%
same,pest or weed control at 125 g/ha,"oat, wild [2]; 0 to 100 scale",20%
same,pest or weed control at 500 g/ha,"oat, wild [2]; [7]",90%
same,pest or weed control at 125 g/ha,"pigweed, palmer; 0 to 100 scale",90%
same,pest or weed control at 500 g/ha,"pigweed, palmer; [7]",100%
same,plant injury at 125 g/ha,soybean [3]; 0 to 100 scale,0%
same,plant injury at 500 g/ha,soybean [3]; [7],100%
same,pest or weed control at 125 g/ha,"kochia [4]; postemergence, 10 days, 0 to 100 scale (0 no effect, 100 complete control), read-out: Kochia plant response rating",60%
same,pest or weed control at 500 g/ha,kochia [4]; [9],90%
same,pest or weed control at 125 g/ha,"oat, wild [5]; postemergence, 10 days, 0 to 100 scale (0 no effect, 100 complete control), read-out: Oat, Wild plant response rating",30%
same,pest or weed control at 500 g/ha,"oat, wild [5]; [10]",80%
same,pest or weed control at 125 g/ha,"ragweed; postemergence, 10 days, 0 to 100 scale (0 no effect, 100 complete control), read-out: Ragweed plant response rating",0%
same,pest or weed control at 500 g/ha,ragweed; [11],30%
same,pest or weed control at 125 g/ha,"ryegrass, Italian; postemergence, 10 days, 0 to 100 scale (0 no effect, 100 complete control), read-out: Ryegrass, Italian plant response rating",50%
same,pest or weed control at 500 g/ha,"ryegrass, Italian; [12]",80%
same,plant injury at 125 g/ha,"soybean [6]; postemergence, 10 days, 0 to 100 scale (0 no effect, 100 complete control), read-out: Soybean plant response rating",100%
same,plant injury at 500 g/ha,soybean [6]; [13],100%
same,plant injury at 125 g/ha,"wheat; postemergence, 10 days, 0 to 100 scale (0 no effect, 100 complete control), read-out: Wheat plant response rating",10%
same,plant injury at 500 g/ha,wheat; [14],60%
same,pest or weed control at 125 g/ha,"galium; postemergence, 10 days, 0 to 100 scale (0 no effect, 100 complete control), read-out: Galium plant response rating",100%
same,pest or weed control at 500 g/ha,galium; [15],100%
same,pest or weed control at 250 g/ha,ducksalad,0%
same,plant injury at 250 g/ha,rice,0%
same,pest or weed control at 250 g/ha,"sedge, umbrella",95%
